Experimental data from paper PMC8129907 (Journal of Bone and Joint Infection, 2021).
Read-outs that look alike come from different tables or passages of the source. Marks after values point to notes of the source that are not given here.

Columns and labels:
[1] = Plasma vancomycin concentrations after tibial intraosseous administration; settings: pig, 500 mg intraosseous, no tourniquet, mean (SD), n = 8
Procedure: (§1) Eight female pigs, from the same supplier and raised under the same conditions, were included in the study (Danish Landrace Breed, age 5 months, weight 78–82 kg). The pigs were kept under general anesthesia with a continuous infusion of propofol (450–650 mg/h) and fentanyl (0.5–0.7 mg/h) throughout the entire study period. The arterial pH and body temperature were monitored and kept in the ranges of 7.37–7.52 and 36.4–40.0 ^∘ C, respectively. After the study, the pigs were euthanized using pentobarbital.
(§2) Afterwards, all probes were individually calibrated by the retrodialysis method by collecting a 60 min sample. […] The first three dialysates were collected at times 40, 80, and 120 min. Thereafter, dialysates were collected at 60 min intervals from times 120 to 720 min, giving a total of 13 samples from each compartment over 12 h. Blood samples were drawn from a central venous catheter at the midpoint of the microdialysis sample intervals. The dialysates were instantly stored at -80 ^∘ C until analysis. Blood samples were stored at 5 ^∘ C for a maximum of 4 h before being centrifuged at 3000 rpm for 10 min. The obtained plasma aliquots were then stored at -80 ^∘ C until analysis.
(§3) Intra-run (total) imprecisions for the assay were ±1.2 µg/mL (2 standard deviations – SD) at 6.6 and ±3.7 µg/mL (2 SD) at 29.1 µg/mL .
Standard pharmacokinetic parameters were determined separately for each compartment in each pig by non-compartmental analysis using Stata (v. 14.1, StataCorp LLC, College Station, TX, USA). The area under the concentration–time curve (AUC 0-last ) was calculated using the trapezoidal rule. The maxima of all the recorded concentrations were defined as peak drug concentration ( Cmax ) and enabled a calculation of the time to Cmax ( Tmax ). Half-life ( T1/2 ) was determined for all compartments except for tibial cortical bone and calculated as ln(2)/ λeq , where λeq is the terminal elimination rate constant estimated by linear regression of the log concentration on time. For AUC 0-last and Cmax , a mixed model for repeated measurements was applied, taking the variance between pigs into account. The model assumptions were tested by visual diagnosis of residuals, fitted values, and estimates of random effects. A correction for degrees of freedom due to small sample size was handled using the Kenward–Roger approximation method. The t test was used to determine relevant pairwise comparisons. A p value <0.05 was considered to be significant. A Spearman test was used to test the correlation between the distance of the intraosseous cannula and the adjacent cancellous bone drill hole with the peak drug concentration. Statistical analyses were also performed using Stata. […] Values below the quantification limit were set to zero.

[2] = system: Commonly encountered bacteria in orthopaedic infections; set-up: method as in Rybak, 2006; EUCAST, 2019; settings: range for commonly encountered bacteria in orthopaedic infections; ref Rybak, 2006; EUCAST, 2019; cited from earlier work
[3] = proximal tourniquet applied before intraosseous administration, ref Young et al., 2014, Chin et al., 2018, Rubio-Martinez et al., 2006, cited from earlier work
[4] = pig, 500 mg intraosseous, no tourniquet, microdialysis, mean (SD), n = 8; for AUC 0-last: 12 h
Procedure: as §1
An intraosseous cannula (15 mm) was inserted into the medial tibial condyle approximately 10 mm distal to the epiphyseal line; see Fig. 1. Three tibial microdialysis probes were placed in drill holes, one in the adjacent cancellous bone parallel to and at a mean distance of 9 (range 7–10) mm from the intraosseous cannula tip (drill depth 35±1 mm), one in the cortical bone at the anterior–medial margin of the tibial diaphysis (drill depth 14±0.5 mm), and one within the intramedullary canal of the tibial diaphysis. All drill holes were made with a 2 mm drill, which was paused every few seconds to prevent overheating of the bone tissue. Subsequently, a probe was placed in the synovial fluid of the knee joint using a splittable introducer. Finally, a subcutaneous tissue probe was placed lateral to the knee joint. No tourniquet was applied. Correct positions of all the probes and the distance between the intraosseous cannula and the adjacent cancellous bone microdialysis catheter were verified by fluoroscopy.
Due to continuous perfusion of the microdialysis system, a complete equilibrium across the semipermeable membrane will never occur. The concentration in the dialysate will therefore only represent a fraction of the absolute tissue concentration, which is expressed as the relative recovery. Thus, relative recovery must be determined to assess the absolute tissue concentrations. In the present study, all microdialysis probes were individually calibrated in the beginning of the study using the retrodialysis by drug method (Scheller and Kolb, 1991).
In the present study we used CMA 107 precision pumps ( μ -Dialysis AB, Stockholm, Sweden) producing a flow rate of 1 µL/min and CMA 70 probes (membrane lengths 10 and 20 mm, molecular cutoff 20 kDa).
as §2, §3
Standard pharmacokinetic parameters were determined separately for each compartment in each pig by non-compartmental analysis using Stata (v. 14.1, StataCorp LLC, College Station, TX, USA). The area under the concentration–time curve (AUC 0-last ) was calculated using the trapezoidal rule. The maxima of all the recorded concentrations were defined as peak drug concentration ( Cmax ) and enabled a calculation of the time to Cmax ( Tmax ).

[5] = intramedullary canal in the tibia
[6] = synovial fluid of the knee joint

CN[C@H](CC(C)C)C(=O)N[C@H]1C(=O)N[C@@H](CC(N)=O)C(=O)N[C@H]2C(=O)N[C@H]3C(=O)N[C@H](C(=O)N[C@H](C(=O)O)c4cc(O)cc(O)c4-c4cc3ccc4O)[C@H](O)c3ccc(c(Cl)c3)Oc3cc2cc(c3O[C@@H]2O[C@H](CO)[C@@H](O)[C@H](O)[C@H]2O[C@H]2C[C@](C)(N)[C@H](O)[C@H](C)O2)Oc2ccc(cc2Cl)[C@H]1O [vancomycin]
AUC 0-last ([1]; plasma (free concentration, enzyme immunoassay), 12 h): 3,673 (611) min µg/mL
Cmax (peak drug concentration) ([1]; plasma (free concentration, enzyme immunoassay)): 19 (2) µg/mL
T1/2 ([1]; plasma): 254 (128) min
Tmax ([1]; plasma): 20 (19) min
planktonic MIC [2]: 0.5 to 4 µg/mL
systemic vancomycin plasma levels after tourniquet deflation ([3]; range): 1.8 to 6.0 µg/mL
increase of plasma levels after tourniquet deflation [3]: 4–10 fold
systemic vancomycin plasma levels during tourniquet inflation [3]: 0.0 to 2.7 µg/mL
AUC 0-last [4, 5]: 1980 (908) ^a min µg/mL
T1/2 [4, 5]: 339 (332) min
Tmax [4, 5]: 65 (26) min
AUC 0-last ([4]; subcutaneous tissue): 1881 (691) ^a min µg/mL
T1/2 ([4]; subcutaneous tissue): 361 (269) min
Tmax ([4]; subcutaneous tissue): 70 (19) min
AUC 0-last [4, 6]: 1565 (758) ^a min µg/mL
T1/2 [4, 6]: 217 (140) min
Tmax [4, 6]: 45 (21) min
T1/2 ([4]; tibial cancellous bone): 279 (188) min
Tmax ([4]; tibial cancellous bone): 111 (94) min
vancomycin concentration after 11.5 h (690 min), end concentration ([4]; tibial cancellous bone): 278 (469) µg/mL
AUC 0-last ([4]; tibial cortical bone): 326 (331) min µg/mL
Tmax ([4]; tibial cortical bone): 405 (278) min
